tested on: activated microglia; assay: Microglia activation assay (LPS-treated mice, Iba1 IHC of brain); type: in vivo; conditions: 10 mg/kg b.i.d. oral, LPS 0.5 mg/kg i.p., female C57Bl/6J mice
Procedure: Female C57Bl/6J mice (7 weeks old) were purchased from Jackson Laboratory (Maine, US). Animals were acclimated for a week at standard laboratory conditions (12 hrs light cycles) with free access to rodent chow and water. All procedures were in accordance with the National Institute of Health Guidelines for the care and Use of Laboratory Animals and were approved by IACUCC. The endotoxin Lipopolysaccharide (LPS) (E. coli 011:B4, cat #437627) was purchased from Calbiochem. LPS was dissolved in PBS buffer at a concentration of 0.05 mg/ml and stored in frozen aliquots. At the start of the study, mice received an intraperitoneal (i.p.) injection of LPS (0.5 mg/kg) for three consecutive days. Therapeutic treatment with VRT compounds was started together with the 2nd LPS administration and maintained throughout the study. Compound was dosed twice a day orally by gavage for a total of 4 doses. 24 h following the last LPS injection, and 2 hrs following the last VRT dose, animals were sacrificed by CO2 asphyxiation. […]
Digital images were captured using the Aperio ScanScope Slide Scanner (Aperio Technologies, Vista, Calif.). Images were captured at 20× optical magnification, and analyzed using the software Definiens Developer XD. […] Compound efficacy was calculated as percent decrease in number of activated microglia relative to vehicle control.

Compound	percent decrease in number of activated microglia relative to vehicle control [%]
Cc1cc(-c2cncc(OC(F)F)c2)nc2c1C(=O)N(c1cnn(CC(F)(F)F)c1)C2 [Compound 271]	39

target: PI3K-gamma (Homo sapiens, UniProt P48736); assay: PI3K inhibition assay (33P-ATP, PI(4,5)P2 substrate), PI3K-gamma; type: biochemical; conditions: not given; note: 2 nM enzyme
Sequence (P48736 whole entry, species assumed, canonical isoform): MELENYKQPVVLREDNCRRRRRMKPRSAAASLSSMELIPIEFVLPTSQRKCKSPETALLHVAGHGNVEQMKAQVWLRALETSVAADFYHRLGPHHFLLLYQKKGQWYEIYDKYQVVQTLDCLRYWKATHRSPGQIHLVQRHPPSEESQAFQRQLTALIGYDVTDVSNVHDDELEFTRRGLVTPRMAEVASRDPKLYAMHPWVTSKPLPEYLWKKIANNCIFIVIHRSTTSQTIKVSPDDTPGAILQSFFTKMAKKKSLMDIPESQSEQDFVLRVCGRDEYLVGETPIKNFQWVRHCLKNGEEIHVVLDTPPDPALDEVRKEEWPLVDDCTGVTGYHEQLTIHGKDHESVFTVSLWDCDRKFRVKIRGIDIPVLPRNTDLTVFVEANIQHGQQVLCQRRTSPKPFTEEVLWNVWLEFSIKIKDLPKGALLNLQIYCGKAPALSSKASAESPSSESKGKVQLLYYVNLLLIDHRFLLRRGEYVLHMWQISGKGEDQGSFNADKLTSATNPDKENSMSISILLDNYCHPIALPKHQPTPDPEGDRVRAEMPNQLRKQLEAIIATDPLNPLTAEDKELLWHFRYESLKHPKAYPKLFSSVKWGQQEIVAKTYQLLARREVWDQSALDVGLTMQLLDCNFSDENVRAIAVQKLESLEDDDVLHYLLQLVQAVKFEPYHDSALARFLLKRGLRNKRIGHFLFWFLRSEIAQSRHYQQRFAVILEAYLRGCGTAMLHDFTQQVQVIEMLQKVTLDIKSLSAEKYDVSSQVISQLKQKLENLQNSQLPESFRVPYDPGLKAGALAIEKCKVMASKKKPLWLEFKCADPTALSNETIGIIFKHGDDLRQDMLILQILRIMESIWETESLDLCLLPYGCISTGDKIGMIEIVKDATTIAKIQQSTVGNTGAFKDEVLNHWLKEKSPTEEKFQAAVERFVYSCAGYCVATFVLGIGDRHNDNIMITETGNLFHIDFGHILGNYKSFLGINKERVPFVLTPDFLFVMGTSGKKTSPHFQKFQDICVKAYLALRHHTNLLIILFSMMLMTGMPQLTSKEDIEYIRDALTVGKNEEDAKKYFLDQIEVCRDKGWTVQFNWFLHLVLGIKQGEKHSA
Procedure: One test well also contained 1.5 μL of DMSO with no compound. […] Using a Titertek Multidrop, 50 μL of Reaction Mix [100 mM HEPES pH 7.5, 50 mM NaCl, 10 mM DTT, 0.2 mg/mL BSA, 60 μM phosphatidylinositol(4,5)bisphosphate diC16 (PI(4,5)P2; Avanti Polar Lipids, Cat. No. 840046P) and PI3K isoform of interest (see Table 3 for isoform concentrations)] was added to each well. To initiate the reaction, 50 μL of ATP Mix [20 mM MgCl2, 6 μM ATP (100 μCi/μmole ^33P-ATP)] was added each well, followed by incubating the wells for 30 min. at 25° C. Final concentrations in each well were 50 mM HEPES 7.5, 10 mM MgCl2, 25 mM NaCl, 5 mM DTT, 0.1 mg/mL BSA, 30 μM PI(4,5)P2, 3 μM ATP, and the PI3K isoform of interest (see Table 2). Final compound concentrations in each well ranged from 10 μM to 1 nM.
After incubation, the reactions in each well were quenched by addition of 50 μL of stop solution [30% TCA/Water, 10 mM ATP]. […] 50 μL of scintillation fluid was added to each well and the plate read on a Perkin-Elmer TopCount™ NXT liquid scintillation counter to obtain ^33P-counts representing inhibition values.
The value for the background well was subtracted from the value obtained for each test well and the data were fit to the competitive tight binding Ki equation described by Morrison and Stone, Comments Mol. Cell Biophys.

Compound	Ki [nM]
Cc1cc(-c2cncc(OCC(F)F)c2)nc2c1C(=O)N(c1ccn(C3CCOC3)n1)C2 (single isomer, unassigned) [Compound 863]	< 100
Cc1cc(-c2cnc(C)c(OCC(F)F)c2)nc2c1C(=O)N(c1ccn(C3CCOC3)n1)C2 (single isomer, unassigned) [Compound 864]	< 100
Cc1cc(-c2cncc(S(=O)(=O)N(C)C)c2)nc2c1C(=O)N(c1ccn(C3CCOC3)n1)C2 (single isomer, unassigned) [Compound 954]	< 100
N#CCn1cc(N2Cc3cc(-c4cncc(S(N)(=O)=O)c4)ccc3C2=O)cn1 [Compound 76]	100 to 490
COc1cc(-c2ccc3c(n2)CN(c2ccc(N(C)CCN(C)C)nc2)C3=O)cnc1OC [Compound 195]	500 to 2500
COc1cncc(-c2cc(C)c3c(n2)C(C)(C)N(c2ccn(C[C@H](C)O)n2)C3=O)c1 [Compound 872]	100 to 490

Next, values leading:

Ki [nM]	Compound
100 to 490	COc1cc(-c2ccc3c(c2)CN(c2cn[nH]c2)C3=O)cnc1OC [Compound 13]
500 to 2500	COc1cc(-c2ccc3c(n2)C(N2CCCN(C)CC2)N(c2cnn(CC(F)(F)F)c2)C3=O)cnc1OC (centres unmarked) [Compound 663]
500 to 2500	COc1cc(-c2ccc3c(n2)[C@@H](N2CCOCC2)N(c2cnn(CC(F)(F)F)c2)C3=O)cnc1OC [Compound 665]
500 to 2500	COc1cncc(-c2cc(C)c3c(n2)C(OC)N(c2cc[nH]n2)C3=O)c1 (centres unmarked) [Compound 759]
< 100	CO/N=C/c1cncc(-c2cc(C)c3c(n2)C(C)(C)N(c2cnn(CC(F)(F)F)c2)C3=O)c1 [Compound 883]
< 100	Cc1cc(-c2cncc([S@+](C)[O-])c2)nc2c1C(=O)N(c1cnn(CC(F)(F)F)c1)C2(C)C [Compound 967]
< 100	Cc1cc(-c2cncc([S@@+](C)[O-])c2)nc2c1C(=O)N(c1cnn(CC(F)(F)F)c1)C2(C)C [Compound 968]
